Assay results published in article PMC8565778, “Evaluation of health benefits of sea lamprey (Petromyzon marinus) isolates using in vitro antiinflammatory and antioxidant assays” (PLoS ONE, 2021).

Legend:
[1] = biological target: T1, COX-1 (cyclooxygenase enzyme-1) (Ovis aries, UniProt P05979); assay: biochemical; design: In vitro cyclooxygenase (COX-1 and COX-2) enzyme inhibition assay, percent inhibition; conditions: read-out: % inhibition
T1 construct: gene PTGS1
T1 sequence (P05979 25-600): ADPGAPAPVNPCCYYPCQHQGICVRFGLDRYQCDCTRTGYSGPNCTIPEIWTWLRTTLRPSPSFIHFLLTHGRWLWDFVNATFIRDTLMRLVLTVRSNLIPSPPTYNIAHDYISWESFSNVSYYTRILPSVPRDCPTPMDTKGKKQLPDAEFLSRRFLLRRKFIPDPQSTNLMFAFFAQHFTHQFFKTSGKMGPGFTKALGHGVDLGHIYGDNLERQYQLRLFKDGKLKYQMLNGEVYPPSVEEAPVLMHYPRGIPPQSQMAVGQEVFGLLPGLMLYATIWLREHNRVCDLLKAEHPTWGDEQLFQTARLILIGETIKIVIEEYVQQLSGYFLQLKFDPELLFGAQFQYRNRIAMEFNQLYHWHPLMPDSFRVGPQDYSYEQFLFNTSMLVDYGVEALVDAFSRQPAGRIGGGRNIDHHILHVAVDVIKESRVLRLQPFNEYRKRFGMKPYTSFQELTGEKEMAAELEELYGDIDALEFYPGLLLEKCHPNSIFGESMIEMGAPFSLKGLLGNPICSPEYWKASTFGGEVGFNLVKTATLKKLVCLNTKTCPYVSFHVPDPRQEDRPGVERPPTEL
Method: (see S1 File for experimental details). To evaluate the health-beneficial activity of the sea lamprey compounds, we included all isolates of sea lamprey extract for the evaluation of in vitro antiinflammatory and antioxidant activities. […] (S1 File). […] Antiinflammatory activities of arginine, tyrosine, tryptophan, asparagine and inosine were assayed at 50 μg/mL concentration.

[2] = biological target: T2, COX-2 (cyclooxygenase enzyme-2) (Homo sapiens, UniProt P35354); assay: biochemical; design: In vitro cyclooxygenase (COX-1 and COX-2) enzyme inhibition assay, percent inhibition; conditions: read-out: % inhibition
T2 construct: gene PTGS2
T2 sequence (P35354 18-604): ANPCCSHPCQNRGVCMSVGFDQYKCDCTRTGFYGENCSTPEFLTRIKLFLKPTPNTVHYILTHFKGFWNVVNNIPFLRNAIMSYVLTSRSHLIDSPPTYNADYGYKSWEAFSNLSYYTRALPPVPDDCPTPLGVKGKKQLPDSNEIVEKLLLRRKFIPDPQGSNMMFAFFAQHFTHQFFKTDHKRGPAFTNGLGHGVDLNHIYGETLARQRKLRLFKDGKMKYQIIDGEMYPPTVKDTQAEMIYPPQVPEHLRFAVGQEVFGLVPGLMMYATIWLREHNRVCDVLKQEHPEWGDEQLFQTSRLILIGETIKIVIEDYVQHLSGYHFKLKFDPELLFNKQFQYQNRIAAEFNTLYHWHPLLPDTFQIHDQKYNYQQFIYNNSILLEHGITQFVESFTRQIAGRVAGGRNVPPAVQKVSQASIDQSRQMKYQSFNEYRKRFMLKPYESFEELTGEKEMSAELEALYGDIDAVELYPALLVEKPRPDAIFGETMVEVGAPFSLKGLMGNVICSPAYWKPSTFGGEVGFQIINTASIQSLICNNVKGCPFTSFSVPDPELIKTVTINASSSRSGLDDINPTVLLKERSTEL

Row | Structure (SMILES) | inhibition at 25 µg/mL [1] | inhibition at 25 µg/mL [2] | inhibition at 108 µg/mL [2]
1 | O=c1[nH]cnc2c1ncn2[C@@H]1O[C@H](CO)[C@@H](O)[C@H]1O [Inosine] | 35.8 ± 0.5% | 26.1 ± 0.9% | –
2 | N[C@@H](Cc1ccc(O)cc1)C(=O)O [Tyrosine] | 37.2 ± 1.1% | 21.8 ± 2.4% | –
3 | N[C@@H](Cc1ccccc1)C(=O)O [Phenylalanine] | 15.6 ± 1.7% | 11.5 ± 1.3% | –
4 | O=C(O)C(O)Cc1ccccc1 (stereo not drawn) [3-Phenyllactic acid] | 4.42 ± 0.3% | 11.5 ± 1.6% | –
5 | Nc1ncnc2c1ncn2[C@@H]1O[C@H](CO)[C@@H](O)[C@H]1O [Adenosine] | 16.6 ± 1.1% | 14.7 ± 0.8% | –
6 | CCCC(=O)C(=O)O [α-Ketovaleric acid] | 4.13 ± 0.6% | 4.37 ± 0.5% | –
7 | CC(O)CC(=O)O (stereo not drawn) [β-Hydroxybutyric acid] | 19.7 ± 1.5% | 12.3 ± 1.6% | –
8 | CC(=O)Oc1ccccc1C(=O)O [compound 1, Aspirin] | – | – | 29.8 ± 0.9%
9 | O=c1[nH]cnc2nc[nH]c12 [Hypoxanthine] | 10.9 ± 1.4% | 5.82 ± 0.4% | –
10 | CC(C)C(=O)C(=O)O [α-Ketoisovaleric acid] | 17.1 ± 2.1% | 10.5 ± 1.8% | –
11 | CCC(=O)C(=O)O [α-Ketobutyric acid] | 5.24 ± 0.3% | 9.65 ± 0.4% | –
12 | N[C@@H](Cc1c[nH]c2ccccc12)C(=O)O [Tryptophan] | 37.6 ± 0.8% | 19.6 ± 1.8% | –
13 | CN(CC(=O)O)C(=N)N [Creatine] | 13.3 ± 2.7% | 9.65 ± 1.3% | –
14 | NCCCNCCCCNCCCN [Spermine] | 17.5 ± 1.9% | 3.03 ± 0.5% | –
15 | NC(=O)C[C@H](N)C(=O)O [Asparagine] | 26.8 ± 2.3% | 17.3 ± 0.9% | –
16 | N[C@@H](CS)C(=O)O [Cysteine] | 12.9 ± 3.5% | 9.65 ± 1.3% | –

Row | Structure (SMILES) | inhibition at 25 µg/mL [1] | inhibition at 25 µg/mL [2] | inhibition at 108 µg/mL [2]
17 | N[C@@H](CCC(=O)O)C(=O)O [Glutamic acid] | 32.2 ± 1.9% | 13.8 ± 2.4% | –
18 | CC(=O)C(=O)O [Pyruvic acid] | 9.48 ± 2.9% | 7.8 ± 0.8% | –
19 | CC(C)C[C@H](N)C(=O)O [Leucine] | 18.2 ± 1.3% | 4.89 ± 3.9% | –
20 | CSCC[C@H](N)C(=O)O [Methionine] | 15.2 ± 1.5% | 4.36 ± 0.4% | –
21 | N[C@@H](CO)C(=O)O [Serine] | 6.25 ± 2.4% | 2.91 ± 0.3% | –
22 | N[C@@H](CC(=O)O)C(=O)O [Aspartic acid] | 11.8 ± 0.6% | 4.23 ± 0.6% | –
23 | O=C(O)[C@@H]1CCCN1 [Proline] | 21.6 ± 2.4% | 7.14 ± 1.1% | –
24 | NCC(=O)O [Glycine] | 12.9 ± 1.4% | 7.01 ± 0.9% | –
25 | NCCCCN [Putrescine] | 16.9 ± 0.2% | 10.3 ± 1.4% | –
26 | CC(C)[C@H](N)C(=O)O [Valine] | 21.6 ± 0.9% | 8.33 ± 1.3% | –
27 | CC(C)CCC[C@@H](C)[C@H]1CC[C@H]2[C@@H]3CC=C4C[C@@H](O)CC[C@]4(C)[C@H]3CC[C@]12C [Cholesterol] | 2.92 ± 1.4% | 4.94 ± 2.4% | –
28 | Nc1[nH]cnc2ncnc1-2 [Adenine] | 11.7 ± 1.8% | 10 ± 1.4% | –
29 | N=C(N)NCCC[C@H](N)C(=O)O [Arginine] | 29.7 ± 1.3% | 11.9 ± 1.9% | –
30 | O=c1[nH]c(=O)c2nc[nH]c2[nH]1 [Xanthine] | 12.7 ± 3.8% | 4.37 ± 0.6% | –
31 | CCCCCCCCCCCCCCCC(=O)O[C@H]1CC[C@@]2(C)C(=CC[C@H]3[C@@H]4CC[C@H]([C@H](C)CCCC(C)C)[C@@]4(C)CC[C@@H]32)C1 [Cholesteryl palmitate^#] | 37.7 ± 2.4% | 17.7 ± 2.9% | –
32 | CC[C@H](C)[C@H](N)C(=O)O [Isoleucine] | 23.3 ± 0.6% | 9.92 ± 0.5% | –
